Test results from PubChem BioAssay (NCI).
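Cells were grown in 96-well plates and exposed to each compound for 48 hours at five concentrations; endpoints were interpolated linearly between bracketing concentrations, or set to the highest concentration if not reached. At the TGI there is no net growth.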

What was measured:
Assay in all cases: growth of human tumour cells (NCI), 48 h
786-0 renal = system: 786-0 renal
A498 renal = system: A498 renal
ACHN renal = system: ACHN renal
CAKI-1 renal = system: CAKI-1 renal
CCRF-CEM leukemia = system: CCRF-CEM leukemia
COLO 205 colon = system: COLO 205 colon
DLD-1 colon = system: DLD-1 colon
DMS 114 small cell lung = system: DMS 114 small cell lung
DMS 273 small cell lung = system: DMS 273 small cell lung
EKVX NSCLC = system: EKVX NSCLC
HCC-2998 colon = system: HCC-2998 colon
HCT-116 colon = system: HCT-116 colon
HCT-15 colon = system: HCT-15 colon
HL-60(TB) leukemia = system: HL-60(TB) leukemia
HOP-62 NSCLC = system: HOP-62 NSCLC
HOP-92 NSCLC = system: HOP-92 NSCLC
HT29 colon = system: HT29 colon
IGROV1 ovarian = system: IGROV1 ovarian
K-562 leukemia = system: K-562 leukemia
KM12 colon = system: KM12 colon
KM20L2 colon = system: KM20L2 colon
LOX IMVI melanoma = system: LOX IMVI melanoma
LXFL 529 NSCLC = system: LXFL 529 NSCLC
M14 melanoma = system: M14 melanoma
M19-MEL melanoma = system: M19-MEL melanoma
MALME-3M melanoma = system: MALME-3M melanoma
MOLT-4 leukemia = system: MOLT-4 leukemia
NCI-H226 lung = system: NCI-H226 lung
NCI-H23 lung = system: NCI-H23 lung
NCI-H460 lung = system: NCI-H460 lung
NCI-H522 lung = system: NCI-H522 lung
OVCAR-3 ovarian = system: OVCAR-3 ovarian
OVCAR-4 ovarian = system: OVCAR-4 ovarian
OVCAR-5 ovarian = system: OVCAR-5 ovarian
OVCAR-8 ovarian = system: OVCAR-8 ovarian
RPMI-8226 leukemia = system: RPMI-8226 leukemia
RXF 393 renal = system: RXF 393 renal
SF-268 CNS = system: SF-268 CNS
SF-295 CNS = system: SF-295 CNS
SF-539 CNS = system: SF-539 CNS
SK-MEL-2 melanoma = system: SK-MEL-2 melanoma
SK-MEL-28 melanoma = system: SK-MEL-28 melanoma
SK-MEL-5 melanoma = system: SK-MEL-5 melanoma
SK-OV-3 ovarian = system: SK-OV-3 ovarian
SN12C renal = system: SN12C renal
SNB-19 CNS = system: SNB-19 CNS
SNB-75 CNS = system: SNB-75 CNS
SNB-78 CNS = system: SNB-78 CNS
SR leukemia = system: SR leukemia
SW-620 colon = system: SW-620 colon
TK-10 renal = system: TK-10 renal
U251 CNS = system: U251 CNS
UACC-257 melanoma = system: UACC-257 melanoma
UACC-62 melanoma = system: UACC-62 melanoma
UO-31 renal = system: UO-31 renal
XF 498 CNS = system: XF 498 CNS
A549 NSCLC = system: A549 NSCLC
BT-549 breast = system: BT-549 breast
DU-145 prostate = system: DU-145 prostate
HS 578T breast = system: HS 578T breast
MCF7 breast = system: MCF7 breast
MDA-MB-231 breast = system: MDA-MB-231 breast
MDA-MB-435 = system: MDA-MB-435
MDA-N = system: MDA-N
NCI/ADR-RES ovarian = system: NCI/ADR-RES ovarian
PC-3 prostate = system: PC-3 prostate
T-47D breast = system: T-47D breast

Measured: TGI

O=C(O)/C=C/c1ccncc1
0.746 µM: HOP-62 NSCLC
14 µM: U251 CNS
not listed: A549 NSCLC | BT-549 breast | DU-145 prostate | HS 578T breast | MCF7 breast | MDA-MB-231 breast | MDA-MB-435 | MDA-N | NCI/ADR-RES ovarian | PC-3 prostate | T-47D breast
> 100 µM: all other assays above

COc1ccc(OC)c2c(=O)c3ccccc3[nH]c12
94.1 µM: NCI-H226 lung
> 100 µM: A498 renal | A549 NSCLC | CCRF-CEM leukemia | DMS 114 small cell lung | DMS 273 small cell lung | EKVX NSCLC | HCT-116 colon | HL-60(TB) leukemia | HOP-62 NSCLC | HOP-92 NSCLC | HT29 colon | IGROV1 ovarian | KM12 colon | M14 melanoma | M19-MEL melanoma | MOLT-4 leukemia | NCI-H23 lung | NCI-H460 lung | NCI-H522 lung | OVCAR-5 ovarian | OVCAR-8 ovarian | RXF 393 renal | SF-268 CNS | SK-MEL-28 melanoma | SK-OV-3 ovarian | SNB-19 CNS | SNB-78 CNS | SR leukemia | TK-10 renal | U251 CNS | UACC-257 melanoma | UACC-62 melanoma | UO-31 renal

C/C(CC(=O)Nc1cccc([N+](=O)[O-])c1)=N\NC(=O)C[n+]1ccccc1
not listed: A498 renal | ACHN renal | CAKI-1 renal | DMS 273 small cell lung | HCT-15 colon | K-562 leukemia | OVCAR-4 ovarian | SN12C renal | SNB-19 CNS | SR leukemia | BT-549 breast | DU-145 prostate | HS 578T breast | MCF7 breast | MDA-MB-231 breast | MDA-MB-435 | MDA-N | NCI/ADR-RES ovarian | PC-3 prostate | T-47D breast
> 100 µM: all other assays above

COc1ccc(/C(CC2OC(=O)c3ccccc32)=N\NC(N)=O)cc1 (stereo unspecified)
not listed: DLD-1 colon | DMS 114 small cell lung | DMS 273 small cell lung | KM20L2 colon | LXFL 529 NSCLC | M19-MEL melanoma | SNB-78 CNS | XF 498 CNS
> 100 µM: all other assays above
